PubChem BioAssay (NCI)
“And” between values parts separate entries of the source, which are not always exact repeats. Equal values may be shown once.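 Each compound was tested at five concentrations against cells in 96-well plates for 48 hours. GI50 = concentration required for 50% inhibition of growth. TGI denotes the concentration required for complete inhibition of growth.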

Tests used:
Test in all cases: DTP human tumour cell line panel, 48 h
A549 NSCLC = test system: A549 NSCLC
BT-549 breast = test system: BT-549 breast
CAKI-1 renal = test system: CAKI-1 renal
MCF7 breast = test system: MCF7 breast
OVCAR-5 ovarian = test system: OVCAR-5 ovarian
OVCAR-8 ovarian = test system: OVCAR-8 ovarian
PC-3 prostate = test system: PC-3 prostate
RPMI-8226 leukemia = test system: RPMI-8226 leukemia
SK-MEL-2 melanoma = test system: SK-MEL-2 melanoma
HOP-92 NSCLC = test system: HOP-92 NSCLC

Compound	GI50 (A549 NSCLC)	TGI (A549 NSCLC)	TGI (BT-549 breast)	GI50 (CAKI-1 renal)	TGI (CAKI-1 renal)	GI50 (MCF7 breast)	TGI (MCF7 breast)	TGI (OVCAR-5 ovarian)	GI50 (OVCAR-8 ovarian)	TGI (OVCAR-8 ovarian)	GI50 (PC-3 prostate)	TGI (PC-3 prostate)	TGI (RPMI-8226 leukemia)	TGI (SK-MEL-2 melanoma)	GI50 (BT-549 breast)	GI50 (HOP-92 NSCLC)	TGI (HOP-92 NSCLC)	GI50 (OVCAR-5 ovarian)	GI50 (RPMI-8226 leukemia)	GI50 (SK-MEL-2 melanoma)
O=C1NC(c2cccc3ccccc23)Nc2ccccc21 (configuration not stated)	0.0582 µM	> 100 µM	> 100 µM	0.0282 µM	1.82 µM	0.284 µM	2.56 µM	> 65.3 µM	0.0783 µM	12 µM	0.0263 µM	0.213 µM	0.493 µM and 1.05 µM	7.5 µM and > 20.2 µM						
O=C(Nc1cccc(-n2ccc3c(NC(=O)c4ccccc4)nccc32)c1)c1ccc(Cl)c(Cl)c1	0.136 µM	1.71 µM	1.26 µM	0.0531 µM	1.9 µM	0.04 µM	1.43 µM	1.71 µM	0.274 µM	1.86 µM	0.0965 µM	1.52 µM	1.16 µM	2.79 µM	0.214 µM	0.13 µM	2.12 µM	0.476 µM	0.263 µM	1.12 µM
Cc1ccc2c(c1)C(=O)/C(=C/c1cccc(OCC(=O)c3ccc(Cl)cc3)c1)CS2	33.4 µM	> 100 µM	33.8 µM	12.4 µM	37 µM	3 µM	11.3 µM	30 µM	4.53 µM	24.1 µM	2.99 µM		4.47 µM	22.3 µM	12.8 µM			15.7 µM	1.85 µM	8.03 µM
O=[N+]([O-])c1cc(C(F)(F)F)cc2n[se]nc12		27 µM	7.52 µM		9 µM		4.07 µM	26.4 µM		4.25 µM		8.32 µM	2.89 µM	22.7 µM			5.1 µM			
CC[C@H](C)C(=O)O[C@H]1CCC=C2C=C[C@H](C)[C@H](CC[C@@H]3C[C@@H](O)CC(=O)O3)[C@H]21	11.7 µM	> 100 µM	> 78.5 µM	2.6 µM	11.2 µM	> 42.5 µM	> 100 µM	> 100 µM	5.05 µM	> 100 µM	1.7 µM	> 100 µM	> 75.9 µM	11.7 µM	14.4 µM	0.135 µM	0.706 µM	14.4 µM	13.1 µM	1.77 µM
Cc1cc2oc(=O)cc(OC/C=C3/CCC(=O)O3)c2cc1C	13.4 µM	27.1 µM	6.73 µM	3.59 µM	17.7 µM	2.25 µM	12.6 µM	22.9 µM	4.62 µM	19.5 µM	1.74 µM	11.4 µM	4.01 µM	16.1 µM	1.93 µM	1.65 µM	10.6 µM	8.7 µM	0.512 µM	3.41 µM
CC(C)c1ccc(C(O)(C(=O)O)c2ccc(C(C)C)cc2)cc1		> 100 µM	> 100 µM		> 100 µM		> 100 µM	> 100 µM		> 100 µM		51.1 µM	72 µM				> 100 µM			
C=C1C(=O)O[C@H]2[C@H]1CC/C(CNC(=O)C(C)c1ccc(CC(C)C)cc1)=C\CC[C@@]1(C)O[C@@H]21 (some centres not stated)	2.37 µM	6.72 µM	4.45 µM	1.69 µM	3.06 µM	1.62 µM	3.68 µM	4.04 µM	1.88 µM	5.96 µM	1.77 µM	3.82 µM	6.92 µM	3.18 µM	1.8 µM	1.5 µM	2.92 µM	1.92 µM	2.29 µM	1.6 µM
N#Cc1ccc(C(=O)c2cnn(-c3ccc(F)cc3)c2N)cc1	> 25 µM	> 25 µM	> 25 µM	> 25 µM	> 25 µM	> 25 µM	> 25 µM	> 25 µM	> 25 µM	> 25 µM	> 25 µM	> 25 µM	> 25 µM	> 25 µM	> 25 µM	> 25 µM	> 25 µM	> 25 µM	> 25 µM	> 25 µM
CC(=O)OCC1OC([S-])C(OC(C)=O)C(OC(C)=O)C1OC(C)=O.[Au+].c1ccc(CN2[CH-]N(Cc3ccccc3)C(c3ccccc3)=C2c2ccccc2)cc1		34.7 µM and 7.32 µM	4.32 µM and 2.69 µM	0.866 µM	3.37 µM	1.65 µM and 0.827 µM	3.52 µM and 2.04 µM	11.9 µM and 3.1 µM	3.17 µM and 0.479 µM	11.6 µM and 4.44 µM		4.73 µM and 1.17 µM	5.99 µM and 1.93 µM	8.11 µM and 2.2 µM	2.03 µM and 0.375 µM		3.93 µM and 0.437 µM	3.35 µM and 0.783 µM		2.77 µM and 0.656 µM
C=C1C(=O)O[C@H]2C3OC3(C)CC/C=C(/C(=O)OC)[C@@H](OC(C)=O)[C@H](OC(=O)C3(C)OC3C)[C@H]12 (some centres not stated)	9.7 µM and 12.5 µM and 5.5 µg/mL	31.6 µM and 17.5 µg/mL	2.27 µM	206 nM and 1.12 µM and 0.579 µg/mL	478 nM and 2.35 µM and 1.57 µg/mL	0.334 µM	7.16 µM and 1.28 µM	8.82 µM and 4.66 µg/mL	2.13 µM and 699 nM and 0.351 µg/mL	2.98 µM and 3.01 µg/mL	2.99 µM	5.16 µM and 11.7 µM	1.21 µM and 2.66 µM and 0.941 µg/mL			0.817 µg/mL	3.13 µM and 1.26 µg/mL	2.6 µg/mL	0.329 µg/mL	
Cc1c(C(=O)/C=C/c2ccc(Cl)cc2)nnn1-c1ccnc2c(C(F)(F)F)cccc12	23.7 µM	> 100 µM	> 100 µM	53.7 µM	> 100 µM	70.7 µM	> 100 µM	> 100 µM	42.7 µM	> 100 µM	26.1 µM	> 100 µM	> 100 µM	> 100 µM	> 100 µM	18.4 µM	60.6 µM	> 100 µM	8.47 µM	> 100 µM
CCc1nc(N)nc(N)c1-c1ccc(N(C)Cc2ccccc2)c([N+](=O)[O-])c1		16 µM	18.4 µM		25.4 µM		15.9 µM	32.9 µM		30 µM		16.6 µM	4.13 µM	20 µM			18.7 µM			
O=c1oc2ccc(I)cc2c(=O)n1-c1ccc(I)cc1F	3 µM	> 51.8 µM	2.02 µM	0.308 µM	2.53 µM	1.08 µM	11.3 µM	> 100 µM	0.704 µM	> 31.7 µM	2.23 µM	7.35 µM	1.99 µM	2.55 µM	0.403 µM	0.169 µM	0.544 µM	3.93 µM	0.366 µM	0.391 µM
COc1cc(C(=O)c2cnc(-c3ccc4cc[nH]c4c3)[nH]2)cc(OC)c1OC	0.0523 µM	11.7 µM	3.12 µM	0.0503 µM	4.2 µM	0.0376 µM	11.4 µM	23.9 µM	0.0484 µM	11.5 µM	0.0286 µM	15.1 µM	2.77 µM		0.0631 µM	0.632 µM	6.16 µM	0.225 µM	0.0417 µM	
COc1ccc2c(c1)C(=O)/C(=C/c1cccc(OCC(=O)c3ccc([N+](=O)[O-])cc3)c1)CO2	6.72 µM	22.8 µM	4.85 µM	3.85 µM	10.4 µM	0.72 µM	3.68 µM	5.08 µM	2.85 µM	9.66 µM	2.13 µM	7.95 µM		4.2 µM	1.91 µM	3.16 µM	15.8 µM	2.34 µM	1.13 µM	1.64 µM
N#Cc1ccc(O)c(C2=NCC(c3ccc(-c4ccccc4)cc3)O2)c1 (configuration not stated)	0.418 µM	8.06 µM	16.1 µM	0.106 µM	13.1 µM	0.343 µM	11.8 µM	28.9 µM	0.361 µM	13 µM	0.471 µM	22.8 µM	> 100 µM	15.8 µM	1.37 µM	0.421 µM	22.5 µM	0.941 µM	0.416 µM	0.746 µM
CN(CO)c1nc(N(C)CO)nc(N(C)CO)n1	23.5 µM	64 µM and 26.3 µM	43.1 µM and 36.9 µM	26.9 µM	77.4 µM and 65.7 µM	32 µM	99.1 µM and 56.4 µM	63 µM and > 73.8 µM	23.6 µM	55.6 µM and 38.4 µM		45.6 µM and 51.3 µM	> 91.4 µM and 43.4 µM	32.1 µM and 11.2 µM		29.9 µM and 27.3 µM	64.9 µM and 64.1 µM		27.5 µM	15.5 µM and 5.47 µM
COc1ccccc1-c1ccc2c(N)c(C(=O)c3ccc4c(c3)OCO4)sc2n1	4.05 µM	16.6 µM	30.2 µM	10.2 µM	25.9 µM	4.82 µM	98.6 µM	29.5 µM	4.57 µM	16.7 µM	10.6 µM	40.3 µM	59.4 µM	10.9 µM	7.21 µM	2.99 µM	13 µM	11.2 µM	6.05 µM	3.38 µM
C#Cc1cccc(Nc2ncnc3ccc(-c4cnc(N)nc4)cc23)c1	2.02 µM	14.4 µM	9.37 µM	1.09 µM	4.93 µM	1.8 µM	12.2 µM	14.6 µM	3.69 µM	33.1 µM	1.62 µM	11.3 µM	5.41 µM	5.72 µM	2.07 µM	0.211 µM	3.15 µM	1.33 µM	1.43 µM	2.11 µM
Fc1ccc(-c2c(-c3ccncc3)[nH]c3cccnc23)cc1	17 µM	> 25 µM	> 25 µM	7.43 µM	> 25 µM	13.8 µM	> 25 µM	> 25 µM	> 25 µM	> 25 µM	> 25 µM	> 25 µM	> 25 µM	> 25 µM	> 25 µM	22.3 µM	> 25 µM	> 25 µM	> 25 µM	> 25 µM
COc1ccc(C(=O)/C=C/c2c(C(F)(F)F)nc3ccccn23)cc1OC	3.38 µM	> 100 µM	43.4 µM	1.71 µM	> 24.5 µM	0.518 µM	> 100 µM		1.06 µM	> 25.1 µM	2.73 µM	> 100 µM	1.67 µM	5.09 µM	2.34 µM				0.362 µM	1.72 µM
Oc1ccccc1/C=N\Nc1ccccc1	3.94 µM	> 100 µM	25.4 µM	1.64 µM	21.4 µM	4.06 µM	> 100 µM	39.2 µM	4.94 µM	> 100 µM	9.32 µM	> 100 µM	56.8 µM	> 100 µM	3.19 µM	10.7 µM	42.8 µM	8.75 µM	3.99 µM	13.2 µM
CN1CCN(C(=O)[C@@]2(C)CC[C@]3(C)CC[C@]4(C)C(=CC[C@@H]5[C@@]6(C)CC[C@H](OC(=O)c7cccnc7)C(C)(C)[C@@H]6CC[C@]54C)[C@@H]3C2)CC1	1.71 µM	3.28 µM	3.49 µM			1.49 µM	3.17 µM	3.42 µM	2.06 µM	4.3 µM	1.61 µM	3.54 µM	5.81 µM	28.6 µM	1.7 µM	1.38 µM	3.2 µM	1.69 µM	1.87 µM	13.2 µM
NS(=O)(=O)c1ccc(-n2nc(-c3ccccc3)cc2-c2cc(O)ccc2O)cc1	> 100 µM	> 100 µM	> 100 µM	> 100 µM	> 100 µM	69.4 µM	> 100 µM	92.6 µM	> 100 µM	> 100 µM	77.6 µM	> 100 µM		> 100 µM	> 100 µM	> 100 µM	> 100 µM	25.3 µM		> 100 µM
COc1ccc2[nH]cc(Cc3c[nH]c4ccc(OC)cc34)c2c1	19.1 µM	46.9 µM	36.1 µM	19.9 µM	44.4 µM	28.7 µM	> 100 µM	58 µM	17.4 µM	37.4 µM	19.3 µM	39.4 µM	40.3 µM	43.3 µM	17.4 µM			24.8 µM	20.8 µM	17.4 µM
